In the kinase profiling compilation of Christmann-Franck et al. (2016):

Assays:
Assay in all cases: KINOMEscan competition binding
Conditions in all cases: compound 10.0 µM
DSTYK (human) = DSTYK (human) (UniProt Q6XUX3)
EPHB1 (human) = EPHB1 (human) (UniProt P54762)
PIK3C2G (human) = PIK3C2G (human) (UniProt O75747)
MAPK13 (human) = MAPK13 (human) (UniProt O15264)
LTK (human) = LTK (human) (UniProt P29376)
RIOK2 (human) = RIOK2 (human) (UniProt Q9BVS4)
EPHB4 (human) = EPHB4 (human) (UniProt P54760)
CRK2 (P.falciparum) = CRK2 (P.falciparum) (UniProt P61075)
[1] = target: TYK2 JH2 pseudokinase (human) (UniProt P29597)
AAK1 (human) = AAK1 (human) (UniProt Q2M2I8)
MAP3K1 (human) = MAP3K1 (human) (UniProt Q13233)
ROCK2 (human) = ROCK2 (human) (UniProt O75116)
MAP3K9 (human) = MAP3K9 (human) (UniProt P80192)
STK24 (human) = STK24 (human) (UniProt Q9Y6E0)
STK4 (human) = STK4 (human) (UniProt Q13043)
ACVRL1 (human) = ACVRL1 (human) (UniProt P37023)
MARK2 (human) = MARK2 (human) (UniProt Q7KZI7)
[2] = target: JAK2 JH1 catalytic (human) (UniProt O60674)
SIK2 (human) = SIK2 (human) (UniProt Q9H0K1)
MAP3K3 (human) = MAP3K3 (human) (UniProt Q99759)
CAMKK2 (human) = CAMKK2 (human) (UniProt Q96RR4)
FRK (human) = FRK (human) (UniProt P42685)
PLK2 (human) = PLK2 (human) (UniProt Q9NYY3)
FGFR4 (human) = FGFR4 (human) (UniProt P22455)
FGFR3 (human) = FGFR3 (human) (UniProt P22607)
MAP3K4 (human) = MAP3K4 (human) (UniProt Q9Y6R4)
ACVR1 (human) = ACVR1 (human) (UniProt Q04771)
MINK1 (human) = MINK1 (human) (UniProt Q8N4C8)
ITK (human) = ITK (human) (UniProt Q08881)
MUSK (human) = MUSK (human) (UniProt O15146)
MATK (human) = MATK (human) (UniProt P42679)
CAMKK1 (human) = CAMKK1 (human) (UniProt Q8N5S9)
NEK7 (human) = NEK7 (human) (UniProt Q8TDX7)
CDK4 CCND3 (human) = CDK4 CCND3 (human) (UniProt P11802+P30281)
NEK6 (human) = NEK6 (human) (UniProt Q9HC98)
PAK7 (human) = PAK7 (human) (UniProt Q9P286)
STK17A (human) = STK17A (human) (UniProt Q9UEE5)
CDK13 (human) = CDK13 (human) (UniProt Q14004)
AKT1 (human) = AKT1 (human) (UniProt P31749)
NEK5 (human) = NEK5 (human) (UniProt Q6P3R8)

MUSK (human), sequence (O15146 whole entry, looked up): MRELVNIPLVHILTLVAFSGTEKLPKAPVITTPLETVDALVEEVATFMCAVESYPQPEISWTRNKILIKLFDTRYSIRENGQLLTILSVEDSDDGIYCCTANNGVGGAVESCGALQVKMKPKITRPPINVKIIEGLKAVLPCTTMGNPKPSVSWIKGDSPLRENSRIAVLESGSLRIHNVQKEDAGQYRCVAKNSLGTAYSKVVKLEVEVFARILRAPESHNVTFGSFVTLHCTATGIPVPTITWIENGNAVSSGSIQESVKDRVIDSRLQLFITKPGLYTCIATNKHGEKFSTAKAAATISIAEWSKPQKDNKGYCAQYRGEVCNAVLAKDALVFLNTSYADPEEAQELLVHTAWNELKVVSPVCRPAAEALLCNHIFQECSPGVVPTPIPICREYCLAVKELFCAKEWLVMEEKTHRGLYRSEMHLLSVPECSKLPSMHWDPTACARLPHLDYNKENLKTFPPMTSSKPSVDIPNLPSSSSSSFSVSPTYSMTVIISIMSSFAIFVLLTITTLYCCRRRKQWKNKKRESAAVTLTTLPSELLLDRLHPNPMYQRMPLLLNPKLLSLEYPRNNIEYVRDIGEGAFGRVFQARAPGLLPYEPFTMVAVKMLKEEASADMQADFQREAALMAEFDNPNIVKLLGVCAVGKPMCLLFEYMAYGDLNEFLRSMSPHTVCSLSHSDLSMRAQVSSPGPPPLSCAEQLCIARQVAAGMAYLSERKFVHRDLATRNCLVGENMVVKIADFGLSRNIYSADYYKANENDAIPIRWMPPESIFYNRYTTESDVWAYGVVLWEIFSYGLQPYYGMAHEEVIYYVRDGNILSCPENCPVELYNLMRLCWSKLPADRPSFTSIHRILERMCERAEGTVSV
CDK4 CCND3 (human), sequence (P11802 whole entry, looked up): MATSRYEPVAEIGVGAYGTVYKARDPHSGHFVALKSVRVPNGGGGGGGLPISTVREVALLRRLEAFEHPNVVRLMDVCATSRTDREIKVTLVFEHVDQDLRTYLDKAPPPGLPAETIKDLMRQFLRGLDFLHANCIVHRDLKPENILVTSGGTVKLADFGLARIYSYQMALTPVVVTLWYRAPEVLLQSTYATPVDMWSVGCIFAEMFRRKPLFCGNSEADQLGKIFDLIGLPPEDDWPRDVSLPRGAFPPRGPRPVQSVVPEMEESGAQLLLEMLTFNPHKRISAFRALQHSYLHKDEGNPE
CDK4 CCND3 (human), sequence (P30281 whole entry, looked up): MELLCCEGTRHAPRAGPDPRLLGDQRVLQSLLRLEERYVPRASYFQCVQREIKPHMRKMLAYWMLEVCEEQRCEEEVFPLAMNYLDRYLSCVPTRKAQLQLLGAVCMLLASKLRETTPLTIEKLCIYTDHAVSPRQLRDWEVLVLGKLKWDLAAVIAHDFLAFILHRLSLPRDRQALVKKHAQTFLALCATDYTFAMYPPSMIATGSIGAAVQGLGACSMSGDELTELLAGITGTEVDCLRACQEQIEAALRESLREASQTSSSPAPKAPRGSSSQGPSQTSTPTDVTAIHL
FGFR4 (human), sequence (P22455 whole entry, looked up): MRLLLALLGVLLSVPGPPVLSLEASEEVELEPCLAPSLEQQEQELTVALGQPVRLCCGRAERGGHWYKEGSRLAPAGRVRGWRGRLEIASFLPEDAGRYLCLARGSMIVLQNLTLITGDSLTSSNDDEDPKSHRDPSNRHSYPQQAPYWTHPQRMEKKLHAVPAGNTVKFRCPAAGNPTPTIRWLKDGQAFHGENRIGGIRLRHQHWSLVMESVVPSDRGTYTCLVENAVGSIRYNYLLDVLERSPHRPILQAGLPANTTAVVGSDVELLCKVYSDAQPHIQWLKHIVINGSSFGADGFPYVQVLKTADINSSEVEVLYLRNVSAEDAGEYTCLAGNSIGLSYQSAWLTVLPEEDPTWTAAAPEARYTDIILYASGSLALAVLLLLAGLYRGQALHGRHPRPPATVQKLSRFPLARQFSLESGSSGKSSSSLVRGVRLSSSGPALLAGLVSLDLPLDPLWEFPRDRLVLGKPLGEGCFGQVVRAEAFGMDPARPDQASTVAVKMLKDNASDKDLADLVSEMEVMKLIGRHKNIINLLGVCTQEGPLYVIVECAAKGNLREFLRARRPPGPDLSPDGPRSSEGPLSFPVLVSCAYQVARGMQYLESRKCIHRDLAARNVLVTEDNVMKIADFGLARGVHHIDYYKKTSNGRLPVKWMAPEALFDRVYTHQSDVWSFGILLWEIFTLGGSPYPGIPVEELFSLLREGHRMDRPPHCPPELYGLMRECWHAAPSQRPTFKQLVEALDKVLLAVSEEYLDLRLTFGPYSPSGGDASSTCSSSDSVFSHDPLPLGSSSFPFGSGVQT
NEK6 (human), sequence (Q9HC98 whole entry, looked up): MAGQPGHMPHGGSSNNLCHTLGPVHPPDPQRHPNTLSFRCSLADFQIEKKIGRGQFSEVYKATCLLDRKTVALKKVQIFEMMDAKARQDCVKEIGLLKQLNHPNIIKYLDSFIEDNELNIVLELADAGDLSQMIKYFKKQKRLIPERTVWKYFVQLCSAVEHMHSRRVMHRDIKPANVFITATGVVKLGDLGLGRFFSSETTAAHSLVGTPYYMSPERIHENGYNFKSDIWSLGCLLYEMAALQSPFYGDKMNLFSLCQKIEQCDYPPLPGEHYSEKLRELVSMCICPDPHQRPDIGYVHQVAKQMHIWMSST
ACVRL1 (human), sequence (P37023 whole entry, looked up): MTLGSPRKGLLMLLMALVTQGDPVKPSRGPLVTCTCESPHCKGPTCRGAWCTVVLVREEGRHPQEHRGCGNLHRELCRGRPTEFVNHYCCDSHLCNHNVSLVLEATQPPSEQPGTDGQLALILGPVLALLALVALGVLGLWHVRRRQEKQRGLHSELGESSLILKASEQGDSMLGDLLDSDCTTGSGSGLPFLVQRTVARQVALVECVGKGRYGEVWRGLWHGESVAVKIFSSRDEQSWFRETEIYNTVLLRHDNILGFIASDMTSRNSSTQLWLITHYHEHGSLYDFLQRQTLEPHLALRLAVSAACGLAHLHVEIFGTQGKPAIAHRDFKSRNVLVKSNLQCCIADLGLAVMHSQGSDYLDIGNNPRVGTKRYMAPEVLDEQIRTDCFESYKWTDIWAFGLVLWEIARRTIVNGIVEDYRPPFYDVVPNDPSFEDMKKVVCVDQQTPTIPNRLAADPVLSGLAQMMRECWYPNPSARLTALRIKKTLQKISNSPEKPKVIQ
STK24 (human), sequence (Q9Y6E0 whole entry, looked up): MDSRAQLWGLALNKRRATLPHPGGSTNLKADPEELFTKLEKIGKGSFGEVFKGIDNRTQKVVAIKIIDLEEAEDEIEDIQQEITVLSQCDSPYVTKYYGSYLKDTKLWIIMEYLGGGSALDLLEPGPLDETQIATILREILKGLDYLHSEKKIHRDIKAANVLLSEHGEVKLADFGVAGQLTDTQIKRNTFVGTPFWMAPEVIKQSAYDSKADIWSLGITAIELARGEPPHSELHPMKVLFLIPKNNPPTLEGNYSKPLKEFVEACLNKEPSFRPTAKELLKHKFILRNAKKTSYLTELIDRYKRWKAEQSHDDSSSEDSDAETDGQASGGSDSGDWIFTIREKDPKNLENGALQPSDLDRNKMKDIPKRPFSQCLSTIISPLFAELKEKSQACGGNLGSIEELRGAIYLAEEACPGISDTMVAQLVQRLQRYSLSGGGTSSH
JAK2 JH1 catalytic (human), sequence (O60674 whole entry, looked up): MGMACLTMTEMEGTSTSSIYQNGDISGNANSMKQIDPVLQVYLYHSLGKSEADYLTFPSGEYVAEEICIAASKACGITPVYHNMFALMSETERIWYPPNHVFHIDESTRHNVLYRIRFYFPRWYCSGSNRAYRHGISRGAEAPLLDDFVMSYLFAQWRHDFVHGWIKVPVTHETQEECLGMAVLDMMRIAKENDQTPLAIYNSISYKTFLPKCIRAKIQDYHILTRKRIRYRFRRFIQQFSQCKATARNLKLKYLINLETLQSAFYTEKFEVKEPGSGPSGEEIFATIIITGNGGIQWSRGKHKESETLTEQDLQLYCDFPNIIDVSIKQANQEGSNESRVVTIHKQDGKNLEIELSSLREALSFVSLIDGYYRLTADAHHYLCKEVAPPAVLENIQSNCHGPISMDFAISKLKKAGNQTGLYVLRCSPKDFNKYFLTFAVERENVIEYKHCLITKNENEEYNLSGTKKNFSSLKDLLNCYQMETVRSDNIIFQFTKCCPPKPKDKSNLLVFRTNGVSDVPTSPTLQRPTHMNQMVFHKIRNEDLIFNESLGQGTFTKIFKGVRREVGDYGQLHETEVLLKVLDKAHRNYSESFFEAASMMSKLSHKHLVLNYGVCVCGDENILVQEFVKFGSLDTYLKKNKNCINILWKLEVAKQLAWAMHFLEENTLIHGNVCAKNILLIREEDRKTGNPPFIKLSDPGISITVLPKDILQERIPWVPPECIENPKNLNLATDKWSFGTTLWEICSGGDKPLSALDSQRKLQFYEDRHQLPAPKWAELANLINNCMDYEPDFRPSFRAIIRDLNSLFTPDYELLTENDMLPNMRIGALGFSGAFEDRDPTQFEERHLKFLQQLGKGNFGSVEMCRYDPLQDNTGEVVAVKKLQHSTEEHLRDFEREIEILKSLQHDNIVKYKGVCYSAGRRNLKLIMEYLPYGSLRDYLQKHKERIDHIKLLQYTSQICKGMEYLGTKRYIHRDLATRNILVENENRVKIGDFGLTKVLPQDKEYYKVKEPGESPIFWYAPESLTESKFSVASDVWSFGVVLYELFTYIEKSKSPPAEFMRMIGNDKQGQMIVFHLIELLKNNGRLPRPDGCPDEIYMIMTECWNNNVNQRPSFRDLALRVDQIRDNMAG
NEK7 (human), sequence (Q8TDX7 whole entry, looked up): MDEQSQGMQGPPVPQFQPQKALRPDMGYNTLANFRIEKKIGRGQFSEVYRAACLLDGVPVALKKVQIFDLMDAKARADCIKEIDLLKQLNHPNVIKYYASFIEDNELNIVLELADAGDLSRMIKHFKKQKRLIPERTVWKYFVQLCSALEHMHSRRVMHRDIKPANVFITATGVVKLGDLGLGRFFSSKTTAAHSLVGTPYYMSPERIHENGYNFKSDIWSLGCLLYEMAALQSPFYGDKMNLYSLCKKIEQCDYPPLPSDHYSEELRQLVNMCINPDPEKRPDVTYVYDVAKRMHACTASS

SMILES: N#Cc1cc(-c2ccnc(Nc3ccc(-n4cnc(-c5cccnc5)n4)cc3)n2)cc(N2CCOCC2)c1
- kinase still bound, per cent of control (DSTYK (human)): 76%
- kinase still bound, per cent of control (EPHB1 (human)): 90%
- kinase still bound, per cent of control (PIK3C2G (human)): 100%
- kinase still bound, per cent of control (MAPK13 (human)): 61%
- kinase still bound, per cent of control (LTK (human)): 77%
- kinase still bound, per cent of control (RIOK2 (human)): 1.4%
- kinase still bound, per cent of control (EPHB4 (human)): 70%
- kinase still bound, per cent of control (CRK2 (P.falciparum)): 100%
- kinase still bound, per cent of control [1]: 12%
- kinase still bound, per cent of control (AAK1 (human)): 5.4%
- kinase still bound, per cent of control (MAP3K1 (human)): 100%
- kinase still bound, per cent of control (ROCK2 (human)): 25%
- kinase still bound, per cent of control (MAP3K9 (human)): 22%
- kinase still bound, per cent of control (STK24 (human)): 70%
- kinase still bound, per cent of control (STK4 (human)): 89%
- kinase still bound, per cent of control (ACVRL1 (human)): 100%
- kinase still bound, per cent of control (MARK2 (human)): 73%
- kinase still bound, per cent of control [2]: 0%
- kinase still bound, per cent of control (SIK2 (human)): 33%
- kinase still bound, per cent of control (MAP3K3 (human)): 30%
- kinase still bound, per cent of control (CAMKK2 (human)): 52%
- kinase still bound, per cent of control (FRK (human)): 92%
- kinase still bound, per cent of control (PLK2 (human)): 98%
- kinase still bound, per cent of control (FGFR4 (human)): 99%
- kinase still bound, per cent of control (FGFR3 (human)): 74%
- kinase still bound, per cent of control (MAP3K4 (human)): 50%
- kinase still bound, per cent of control (ACVR1 (human)): 23%
- kinase still bound, per cent of control (MINK1 (human)): 31%
- kinase still bound, per cent of control (ITK (human)): 100%
- kinase still bound, per cent of control (MUSK (human)): 92%
- kinase still bound, per cent of control (MATK (human)): 62%
- kinase still bound, per cent of control (CAMKK1 (human)): 48%
- kinase still bound, per cent of control (NEK7 (human)): 45%
- kinase still bound, per cent of control (CDK4 CCND3 (human)): 12%
- kinase still bound, per cent of control (NEK6 (human)): 76%
- kinase still bound, per cent of control (PAK7 (human)): 21%
- kinase still bound, per cent of control (STK17A (human)): 49%
- kinase still bound, per cent of control (CDK13 (human)): 100%
- kinase still bound, per cent of control (AKT1 (human)): 100%
- kinase still bound, per cent of control (NEK5 (human)): 1.4%

SMILES: CCN1CCN(Cc2ccc(NC(=O)c3ccc(C)c(/C=C/c4cnc5[nH]ccc5c4OC)c3)cc2C(F)(F)F)CC1
- kinase still bound, per cent of control (DSTYK (human)): 36%
- kinase still bound, per cent of control (EPHB1 (human)): 0.45%
- kinase still bound, per cent of control (PIK3C2G (human)): 82%
- kinase still bound, per cent of control (MAPK13 (human)): 22%
- kinase still bound, per cent of control (LTK (human)): 62%
- kinase still bound, per cent of control (RIOK2 (human)): 19%
- kinase still bound, per cent of control (EPHB4 (human)): 2.7%
- kinase still bound, per cent of control (CRK2 (P.falciparum)): 93%
- kinase still bound, per cent of control [1]: 100%
- kinase still bound, per cent of control (AAK1 (human)): 26%
- kinase still bound, per cent of control (MAP3K1 (human)): 71%
- kinase still bound, per cent of control (ROCK2 (human)): 34%
- kinase still bound, per cent of control (MAP3K9 (human)): 1.4%
- kinase still bound, per cent of control (STK24 (human)): 20%
- kinase still bound, per cent of control (STK4 (human)): 21%
- kinase still bound, per cent of control (ACVRL1 (human)): 100%
- kinase still bound, per cent of control (MARK2 (human)): 68%
- kinase still bound, per cent of control [2]: 12%
- kinase still bound, per cent of control (SIK2 (human)): 30%
- kinase still bound, per cent of control (MAP3K3 (human)): 1.4%
- kinase still bound, per cent of control (CAMKK2 (human)): 100%
- kinase still bound, per cent of control (FRK (human)): 0.6%
- kinase still bound, per cent of control (PLK2 (human)): 60%
- kinase still bound, per cent of control (FGFR4 (human)): 0.45%
- kinase still bound, per cent of control (FGFR3 (human)): 1.8%
- kinase still bound, per cent of control (MAP3K4 (human)): 66%
- kinase still bound, per cent of control (ACVR1 (human)): 100%
- kinase still bound, per cent of control (MINK1 (human)): 2.8%
- kinase still bound, per cent of control (ITK (human)): 18%
- kinase still bound, per cent of control (MUSK (human)): 0%
- kinase still bound, per cent of control (MATK (human)): 100%
- kinase still bound, per cent of control (CAMKK1 (human)): 100%
- kinase still bound, per cent of control (NEK7 (human)): 64%
- kinase still bound, per cent of control (CDK4 CCND3 (human)): 73%
- kinase still bound, per cent of control (NEK6 (human)): 100%
- kinase still bound, per cent of control (PAK7 (human)): 100%
- kinase still bound, per cent of control (STK17A (human)): 1.3%
- kinase still bound, per cent of control (CDK13 (human)): 100%
- kinase still bound, per cent of control (AKT1 (human)): 100%
- kinase still bound, per cent of control (NEK5 (human)): 4.3%
